Test results: patent US11666561B2, “Compounds for use in regulating follicle maturation” (AARHUS UNIVERSITET, priority 2017, dated 2023)
Structures can show the parent of a compound that is named as a salt.

Tested on: primordial-to-primary follicle transition
Test: In vitro organ culture of mouse ovaries with compound, H&E histology and counting of primordial, primary and secondary follicles
Settings: for effect on primordial-to-primary follicle transition / primordial follicle activation: in vitro cultured mouse ovaries, concentration not given
Description: Ovaries obtained from mice were washed twice with culture medium. Antagonists or agonists to be tested were dissolved in suitable solvents and added to the medium. As a control medium comprising solvent without the antagonist or agonist was used. One of the ovaries was cultured in a control medium and another was cultured with the antagonist or agonist. The tested antagonists or agonists and their concentrations are outlined in table 2.
Ovaries were incubated with antagonist at 37° C. and 5% CO2 for 24 and 96 hours, respectively (see table 3).
Cultures ovaries were fixed, embedded in paraffin and sliced microscopy. The sectioned ovaries were stained with hematoxylin and eosin (H&E) to visualize the morphology of the ovary by microscopy.
The number of primordial, primary and secondary follicles was determined, and it was determined whether the antagonist or agonist was capable of regulating folliculogenesis.
C57BL/6j×CBA F1 hybrid mice (Janvier Labs, France) were housed and bred in the animal facilities at Department of Biomedicine, Aarhus University. Animals were housed in a 12:12 h controlled light-dark environment and were provided with food and water ad libitum. 7-day-old female pups were used for the study.
Pups were sacrificed and ovaries were excised. Using a stereomicroscope MZ75 (Leica Microsystems, Germany), excess tissue was removed. During the dissection, ovaries were kept at 37° C. in culture medium: aMEM (Thermo Fisher) supplemented with 10% FBS (Thermo Fisher), 100 mIU/mL of FSH (Sigma-Aldrich), 100 IU/mL penicillin (Thermo Fisher), 100 μg/mL streptomycin (Thermo Fisher) and 1% Insulin-Transferrin-Selenium (Thermo Fisher). Isolated ovaries were transferred into well inserts (PET membrane ThinCert, 0.4 μm-pore size; Greiner bio-one) in 24-well plates (Tissue culture treated, cell culture plates; Costar). 200-300 μL of culture medium was added to the well below the insert and up to two ovaries were placed on the membrane of each insert. The culture medium was supplemented with different concentrations of the tested compounds; bpV(HOpic) (Sigma-Aldrich), Temsirolimus (Sigma-Aldrich), Ketotifen (Sigma-Aldrich), 3PO (Sigma-Aldrich), Dorsomorphin (Sigma-Aldrich), AICAR (Sigma-Aldrich), NCG (Sigma-Aldrich), and Dyphylline (Cayman Chemical). Up to six wells in the 24-well plate were used for inserts. Sterile dH2O was added to the rest of the wells to ensure humidity and reduce evaporation. The ovaries were cultured at 37° C., 5% CO2 for four days. 150 μL of medium was replaced every other day with fresh culture medium.
Ovaries kept in organ culture for four days were fixed for 24 hours in 4% paraformaldehyde solution at 4° C. After fixation, ovaries were dehydrated in ethanol series using 70%, 96% and 99.9% ethanol. Xylene was used as clearing agent before the ovaries were infiltrated in paraffin wax. 5 μm-sections of samples in paraffin were cut using a microtome (Cut 6062, SLEE medical, Germany). Paraffin sections were mounted on glass slides, paraffin was melted at 60° C., and the samples were stained with hematoxylin and eosin (using standard protocols).
The samples were deparaffinized by incubating in xylene for 2×15 min. and subsequently rehydrated in series of ethanol; 3×2 min. in 99.9% ethanol, 2 min. in 96% ethanol, and 2 min. in 70% ethanol. The samples were then rinsed in dH2O, stained in hematoxylin for 40 sec., rinsed in dH2O for 5 min., and stained in eosin for 46 sec. The samples were dehydrated in ethanol: 2×2 min. in 96% ethanol, 2×2 min in 99.9% ethanol, and finally cleared up in xylene for at least 30 min before mounting the samples using Eukitt mounting medium (Sigma-Aldrich) and cover glass.
The number of follicles at each developmental stage was counted using an inverted research microscope (DM14000B, Leica Microsystems, Germany). The follicles of every 3rd to 4th section of each ovary were counted and the distribution of follicles in the different stages in percentage was determined.

[1] = 30 μM 3PO, ovaries cultured four days, only healthy follicles counted
[2] = Table 1, effect with a figure cited
[3] = Table 2, effect with a figure cited
[4] = 1.0 μM Trigonellin hydrochloride, 96 hours

| Compound | Effect (Table 1, marked (ongoing)) | Effect (Table 2, marked (ongoing)) | also measured |
| --- | --- | --- | --- |
| c1cc(-c2cnn3cc(-c4ccc(OCCN5CCCCC5)cc4)cnc23)ccn1 [Dorsomorphin] |  |  | primary follicles (5 μM dorsomorphin, four days): 12.78±2.23%; secondary follicles (5 μM dorsomorphin, four days): 15.87±3.06%; primordial follicles (5 μM dorsomorphin, four days, own control contaminated, compared with control of another experiment): 71.32±5.50% |
| Nc1ccn([C@@H]2O[C@H](CO)[C@@H](O)[C@@H]2O)c(=O)n1 [MK-8242, 4-amino-1-[(2R,3S,4S,5R)-3,4-dihydroxy-5-(hydroxymethyl)oxolan-2-yl]pyrimidin-2-one] | promotes | promotes |  |
| C=CCN(/C=C1/C(=O)O[C@H](COC)[C@@]2(C)C1=C(O)C(=O)C1=C2[C@H](OC(C)=O)C[C@]2(C)C(=O)CC[C@@H]12)CC=C [PX-866] | promotes | promotes |  |
| COC(=O)C1=C(C)NC(C)=C([N+](=O)[O-])C1c1ccccc1C(F)(F)F (stereo not drawn) [BAY 1217389, methyl 2,6-dimethyl-5-nitro-4-[2-(trifluoromethyl)phenyl]-1,4-dihydropyridine-3-carboxylate] | promotes | promotes |  |
| CN(C)C(=N)N=C(N)N [Metformin, N,N-Dimethylimiddicarbonimiddiamid] | promotes | promotes |  |
| O=C(C=Cc1cccnc1)c1ccncc1 [3PO, 3-(3-pyridinyl)-1-(4-pyridinyl)-2-propen-1-one] |  |  | primary follicles [1]: 26.60±11.24%; primordial follicles [1]: 63.11±8.83%; secondary follicles [1]: 11.58±9.07%; health of follicles in treated ovaries (3PO treated ovaries): several of the follicles seemed atretic; Effect [2]: promotes; Effect [3]: promotes; effect on primordial-to-primary follicle transition / primordial follicle activation: promote primordial-to-primary transition |
| CN(c1ncccc1CNc1nc(Nc2ccc3c(c2)CC(=O)N3)ncc1C(F)(F)F)S(C)(=O)=O [PF-562271, N-methyl-N-[3-[[[2-[(2-oxo-1,3-dihydroindol-5-yl)amino]-5-(trifluoromethyl)pyrimidin-4-yl]amino]methyl]pyridin-2-yl]methanesulfonamide] | promotes | promotes |  |
| PDGF-AA: peptide, expressed in E coli, SEQ ID NO: 1, binds and activates PDGFRA | promotes | promotes |  |
| C=CC(=O)N1CCC(Oc2cc3c(Nc4ccc(Cl)c(Cl)c4F)ncnc3cc2OC)CC1 [Poziotinib, 1-[4-[4-(3,4-dichloro-2-fluoroanilino)-7-methoxyquinazolin-6-yl]oxypiperidin-1-yl]prop-2-en-1-one] | promotes | promotes |  |
| C=CC(=O)Nc1cc(Nc2nccc(-c3cn(C)c4ccccc34)n2)c(OC)cc1N(C)CCN(C)C [Osimertinib, N-[2-[2-(dimethylamino)ethyl-methylamino]-4-methoxy-5-[[4-(1-methylindol-3-yl)pyrimidin-2-yl]amino]phenyl]prop-2-enamide] | promotes | promotes |  |
| C[n+]1cccc(C(=O)[O-])c1 [Trigonellin hydrochloride] |  |  | decrease in the average numbers of primordial follicles compared to the control [4]: ~20%; increase compared to the control (follicle stage not given) [4]: ~74% |
| Nc1cc(-c2ccncc2)c[nH]c1=O [Amrinone, 3-amino-5-pyridin-4-yl-1H-pyridin-2-one] | promotes | promotes |  |
| CC(C)[C@@H](CS(=O)(=O)C(C)C)N1C(=O)[C@@](C)(CC(=O)O)C[C@H](c2cccc(Cl)c2)[C@H]1c1ccc(Cl)cc1 [AMG-232, 2-[(3R,5R,6S)-5-(3-chlorophenyl)-6-(4-chlorophenyl)-3-methyl-1-[(2S)-3-methyl-1-propan-2-ylsulfonylbutan-2-yl]-2-oxopiperidin-3-yl]acetic acid] | promotes | promotes |  |
| COc1cc(N2CCC(N3CCN(C)CC3)CC2)ccc1Nc1nc2c(c(Nc3ccccc3S(=O)(=O)NC(C)C)n1)CCN2 [CT-707] | promotes | promotes |  |
| CC(C)c1cc(CNc2nc(Nc3cc(C4CC4)[nH]n3)cc(N3CCN(C)CC3)n2)on1 [XL228, 4-N-(5-cyclopropyl-1H-pyrazol-3-yl)-6-(4-methylpiperazin-1-yl)-2-N-[(3-propan-2-yl-1,2-oxazol-5-yl)methyl]pyrimidine-2,4-diamine] | promotes | promotes |  |
| COc1cc(C(=O)O)ccc1NC(=O)[C@@H]1N[C@@H](CC(C)(C)C)[C@](C#N)(c2ccc(Cl)cc2F)[C@H]1c1cccc(Cl)c1F [Idasanutlin, 4-{[(3S,4R,5S)-3-(3-Chloro-2-fluorophenyl)-4-(4-chloro-2-fluorophenyl)-4-cyano-5-(2,2-dimethylpropyl)-D-prolyl]amino}-3-methoxybenzoic acid] | promotes | promotes |  |
| Cn1c(=O)c2c(ncn2CC(O)CO)n(C)c1=O (stereo not drawn) [Dyphylline, 7-(2,3-dihydroxypropyl)-1,3-dimethylpurine-2,6-dione] |  |  | effect on follicle distribution (10 and 100 μM Dyphylline, 96 hours, number too small for statistics): has the potential to activate primordial follicle distribution; Effect [2]: Promotes; Effect [3]: Promotes; effect on primordial-to-primary follicle transition / primordial follicle activation: activation of primordial follicles |
| CCCCNC(=O)NS(=O)(=O)c1ccc(C)cc1 [Tolbutamide, 1-butyl-3-(4-methylphenyl)sulfonylurea] | promotes | promotes |  |
| COc1cc2c(cc1OC(C)C)[C@H](c1ccc(Cl)cc1)N(c1ccc(N(C)CC3CCC(N4CCN(C)C(=O)C4)CC3)cc1)C(=O)C2 (stereo partly drawn) [CGM097, (1S)-1-(4-chlorophenyl)-6-methoxy-2-[4-[methyl-[[4-(4-methyl-3-oxopiperazin-1-yl)cyclohexyl]methyl]amino]phenyl]-7-propan-2-yloxy-1,4-dihydroisoquinolin-3-one] | promotes | promotes |  |
| Cc1nccc2[nH]c(=O)ccc12 [Medorinone, 5-methyl-1H-1,6-naphthyridin-2-one] | promotes | promotes |  |
| Nc1cc(C(F)(F)F)c(-c2cc(N3CCOCC3)nc(N3CCOCC3)n2)cn1 [Buparlisib, 5-(2,6-dimorpholinopyrimidin-4-yl)-4-(trifluoromethyl)pyridin-2-amine] | promotes | promotes |  |
| COc1cc([C@@H]2c3cc4c(cc3[C@H](O)[C@H]3COC(=O)[C@@H]23)OCO4)cc(OC)c1OC [Picropodophyllin, (5R,5aR,8aS,9R)-5-hydroxy-9-(3,4,5-trimethoxyphenyl)-5a,6,8a,9-tetrahydro-5H-[2]benzofuro[5,6-f][1,3]benzodioxol-8-one] | promotes | promotes |  |
| Cn1c(=O)n(-c2ccc(C(C)(C)C#N)cc2)c2c3cc(-c4cnc5ccccc5c4)ccc3ncc21 [Dactolisib, -methyl-2-(4-(3-methyl-2-oxo-8-(quinolin-3-yl)-2,3-dihydro-1H-imidazo[4,5-c]quinolin-1-yl)phenyl)propanenitrile] | promotes | promotes |  |
| CCN1[C@@H](C(=O)NC23CCC(C(=O)O)(CC2)CC3)[C@H](c2cccc(Cl)c2F)[C@]2(C(=O)Nc3cc(Cl)ccc32)C12CCCCC2 [APG-115] | promotes | promotes |  |
| O=C1C=C/C(=C(/[O-])O)N=C1.[K+].[O-][O-].[O-][O-].[O]=[V] [bpV(HOpic)] |  |  | effect on primordial-to-primary follicle transition / primordial follicle activation: increase the rate of primordial-to-primary transition |
